Measured values reported in publication PMC2933614, “Quantitative in vitro and in vivo pharmacological profile of CE-178253, a potent and selective cannabinoid type 1 (CB1) Receptor Antagonist” (BMC Pharmacology, 2010).
Entries after “also recorded” stand apart in the source; their conditions may differ. Read-outs that look alike come from different tables or passages of the source.

How the values were obtained:
[1] = Unbound plasma concentration of CE-178253; format: in vivo, rat; settings: for Unbound Plasma Concentration (± S-D): indirect calorimetry study; for concentration at […]: Sprague-Dawley, rat, plasma, oral, fast-induced refeeding study, read-out: Unbound Plasma Concentration (± S-D)
Procedure: Plasma bound fractions for CE-178253 were determined using an equilibrium dialysis assay, as previously described. Spectra-Por 2 membranes (Spectrum Laboratories Inc., Rancho Dominguez, CA) with a molecular cut-off of 12-14 kDa were used for the dialysis. Equilibrium of the system was achieved by incubating the apparatus for 4.5 hr in a 37°C reciprocating water bath (set at 155 rpm). A standard curve was set up over the range 1-1000 ng/mL. All samples were quantified using liquid chromatography/tandem mass spectrometry using a PE Sciex API 3000 spectrometer. For plasma, the unbound fraction was determined as the ratio of concentrations determined in buffer and plasma.

[2] = Plasma to brain concentration ratios (brain impairment); format: in vivo; settings: Sprague-Dawley, rat, brain and plasma (unbound and total), oral; mean ± SD over 0.3, 1, 3, 10 mg/kg p.o., n = 3 per dose; read-out: Ratios of unbound plasma and total plasma to unbound brain and total brain concentrations
GPR55 = GPR55 (Homo sapiens, UniProt Q9Y2T6); experiment: GPR55 functional assay; format: biochemical; settings: 10 μM
GPR55, sequence (Q9Y2T6 whole entry, species assumed): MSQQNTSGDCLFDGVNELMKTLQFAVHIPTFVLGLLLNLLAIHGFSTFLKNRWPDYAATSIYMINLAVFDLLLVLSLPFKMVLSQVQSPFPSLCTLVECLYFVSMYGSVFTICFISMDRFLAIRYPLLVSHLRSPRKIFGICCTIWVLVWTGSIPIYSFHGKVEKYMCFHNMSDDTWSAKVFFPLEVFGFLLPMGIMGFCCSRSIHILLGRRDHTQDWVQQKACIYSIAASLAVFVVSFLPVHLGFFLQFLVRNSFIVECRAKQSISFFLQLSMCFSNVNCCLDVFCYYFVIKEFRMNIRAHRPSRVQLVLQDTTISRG
From the text: Rimonabant also binds weakly to the Vanilloid 1 (TRPV1) receptor channel. […] CE-178253 was not evaluated against TRPM8. Rimonabant has been reported to bind to TRPM8 [21].

human CB1 in CHO cells = target: T1, human CB1 in CHO cells (Homo sapiens, UniProt P21554); experiment: GTPγ[35S] inverse agonist assay; format: biochemical
T1 construct: expressed in transfected cells
T1 sequence (P21554 whole entry): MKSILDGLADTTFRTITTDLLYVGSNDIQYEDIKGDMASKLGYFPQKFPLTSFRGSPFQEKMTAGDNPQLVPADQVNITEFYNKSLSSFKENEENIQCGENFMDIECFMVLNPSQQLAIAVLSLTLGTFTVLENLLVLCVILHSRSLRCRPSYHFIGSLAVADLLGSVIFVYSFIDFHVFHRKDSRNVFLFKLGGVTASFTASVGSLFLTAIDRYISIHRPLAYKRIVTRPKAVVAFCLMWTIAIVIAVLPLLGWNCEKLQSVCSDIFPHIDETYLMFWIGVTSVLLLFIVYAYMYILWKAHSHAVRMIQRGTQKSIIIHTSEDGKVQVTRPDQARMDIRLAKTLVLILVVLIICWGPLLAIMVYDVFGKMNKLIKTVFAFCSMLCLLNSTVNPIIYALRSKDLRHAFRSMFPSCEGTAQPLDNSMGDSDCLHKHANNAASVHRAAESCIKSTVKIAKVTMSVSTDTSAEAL
Procedure: GTPγ[^35S] binding assays were performed as described. GTPγ[^35S] binding assays were performed in a 96-well FlashPlate™ format in duplicate using 100 pM GTPγ[^35S] and 10 μg membrane per well in assay buffer composed of 50 mM Tris HCl (pH 7.4); 3 mM MgCl2 (pH 7.4); 10 mM MgCl2, 20 mM EGTA, 100 mM NaCl, 30 μM GDP, 0.1% BSA and the following protease inhibitors: 100 μg/ml bacitracin, 100 μg/ml benzamidine, 5 μg/ml aprotinin, and 5 μg/ml leupeptin. […] Assays were performed at 30°C for 1 hr. The FlashPlates™ were then centrifuged at 2000×g for 10 min. Stimulation of GTPγ[^35S] binding was then quantified using a Wallac Microbeta® [16].

[3] = Fast-induced re-feeding food intake; format: in vivo, rat; settings: for Food Intake % decrease (mean ± SEM): 2 hr after return of food
From the text: All animal studies were approved by the Institutional Animal Care and Use Committee. Male Sprague Dawley rats on normal chow (8 weeks old, 250-300 g on arrival, 300-350 g on test day) were obtained from Charles River. After arrival, animals were individually housed and placed on powdered rat chow. Rats were maintained on a 12-hr light/dark cycle and received food and water ad libitum. In all studies CE-178253 and veh (0.5% methyl cellulose) administration to rats and mice was by oral gavage.
For the fast-induced re-feeding assay, food was removed from the cages the afternoon preceding the test day and the rats were fasted overnight. After the overnight fast, rats were administered veh. or CE-178253. […]
Administration of CE-178253 to male S-D rats inhibited overnight fast-induced refeeding. S-D rats were fasted overnight and veh. (0.5% methylcellulose; MC) or CE-178253 was administered orally. Food was provided to the rats 30 min after dosing. Food intake was measured 30 min and 2 hr after return of food. Dose- and unbound plasma concentration-dependent decreases in cumulative FI versus veh. were observed (Figure 4A, B, Table 3) at both time points after return of food. However, the efficacy (as a percent) was greater in the 0.5-2 hr interval than in the first 0.5 interval. In contrast, FI efficacy in the dark-phase feeding was consistent throughout the first four hr (Figure 3B).

Rat oral PK studies = format: in vivo
brain CB1 receptor = target: T2, brain CB1 receptor (Rattus norvegicus, UniProt P20272); experiment: Ex vivo brain receptor occupancy; format: in vivo
T2 construct: Brain homogenates were prepared by adding TME buffer to pre-weighed tissue; from tissue; host or cells: brain homogenate of Sprague Dawley rats dosed p.o
T2 sequence (P20272 whole entry): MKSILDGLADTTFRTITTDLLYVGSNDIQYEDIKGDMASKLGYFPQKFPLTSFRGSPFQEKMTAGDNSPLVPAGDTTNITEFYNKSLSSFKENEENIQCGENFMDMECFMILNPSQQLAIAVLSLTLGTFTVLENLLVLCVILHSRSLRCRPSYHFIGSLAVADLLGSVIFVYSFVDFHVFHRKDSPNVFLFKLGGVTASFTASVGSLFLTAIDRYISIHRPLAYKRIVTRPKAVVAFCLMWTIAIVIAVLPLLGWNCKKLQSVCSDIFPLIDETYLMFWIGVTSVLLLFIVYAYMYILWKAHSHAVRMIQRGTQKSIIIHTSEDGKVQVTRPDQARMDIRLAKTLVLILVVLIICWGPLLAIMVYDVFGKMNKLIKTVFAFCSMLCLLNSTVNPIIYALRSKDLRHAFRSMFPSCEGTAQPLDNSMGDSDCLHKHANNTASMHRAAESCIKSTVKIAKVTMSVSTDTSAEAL
Procedure: An ex vivo brain receptor occupancy assay was used to calculate the in vivo receptor occupancy of CE-178253 at selected doses. […] Brains were removed from the rats 2 hr after return of food. […] The homogenate was diluted to a concentration of 2 mg/mL using TME buffer. […] The plates were then covered and incubated for 90 min at room temperature on a plate shaker. Reactions were stopped by the addition of 100 μL ice cold 7.5% BSA in TME. The plates were aspirated then harvested onto GF/C filter plates (Perkin Elmer Life Sciences; Boston, MA) using ice-cold TME buffer. The filter plates had been pre-soaked in 50 μL 0.5% BSA in TME for 60 min. Filters were dried at room temperature for 30 min, after which 25 μL of Microscint™ (Perkin Elmer Life Sciences; Boston, MA) was added to each and the plates analyzed on a Microbeta counter. Care was taken in our assay to minimize drug-tissue dissociation by comparing binding in a time course and under various conditions. […] Experiments were run in triplicate with at least an n = 3 for each treatment group.

With `CCNC1(C(N)=O)CN(c2nc(C)nc3c(-c4ccc(Cl)cc4)c(-c4ccccc4Cl)nn23)C1` [CE-178253] the “Unbound Plasma Concentration (± S-D)” value ([1]; 1 mg/kg p.o.) was 0.8 ± 0.2 nM, the “Unbound Plasma Concentration (± S-D)” value ([1]; 3 mg/kg p.o.) was 3.8 ± 0.9 nM and the concentration at […] ([1]; 0.3 mg/kg p.o.) was 0.17 ± 0.02 nM. The concentration at […] ([1]; 1 mg/kg p.o.) was 1 ± 0.3 nM, the concentration at […] ([1]; 3 mg/kg p.o.) was 2.7 ± 1 nM and the concentration at […] ([1]; 10 mg/kg p.o.) was 15.6 ± 1.6 nM. For the same compound, the Plasma-to-brain concentration ratio at […] [2] was 2.9 ± 0.25, the “Agonist activity at GPR55” value (GPR55) was “No agonist activity was detected; also recorded: GPR55 (no activity at 10 μM)” and the “Inverse agonist potency weaker than binding potency” value (human CB1 in CHO cells) was 6 fold. The “Inverse agonist potency weaker than functional potency” value (human CB1 in CHO cells) was 29 fold, the IC50 (human CB1 in CHO cells; decrease in basal GTPγ[35S] binding) was 2 ± 0.56 nM and the Emax (human CB1 in CHO cells; percent decrease in basal GTPγ[35S] binding, read-out: Intrinsic Activity) was 21%. The “Food Intake % decrease (mean ± SEM)” value ([3]; 0.3 mg/kg p.o.) was 6 ± 3%, the “Food Intake % decrease (mean ± SEM)” value ([3]; 1 mg/kg p.o.) was 25 ± 11% and the “Food Intake % decrease (mean ± SEM)” value ([3]; 3 mg/kg p.o.) was 62 ± 5.2 %. The “Food Intake % decrease (mean ± SEM)” value ([3]; 10 mg/kg p.o.) was 75 ± 6.2 %, the EC50 ([3]; Rattus norvegicus, […], read-out: EC50, reduction of food intake) was 0.95 nM and the “Reduction in FI” value ([3]; interval between dosing and return of food extended to 2 hr, at 50% receptor occupancy, p < 0.05) was 27%. For the same compound, the “Maximal FI reduction” value ([3]; two hr) was 70%, the “Exposure in chow-fed versus DIO rats” value (Rat oral PK studies; PK studies) was “no differences in exposure” and the Tmax (Rat oral PK studies; Sprague Dawley, rat, in vivo, oral, data not shown) was 1 h. For the same compound, the “Receptor occupancy required for maximum efficacy” value (brain CB1 receptor; calculated, energy intake and expenditure models) was 50-75%, the receptor occupancy at 0.3 mg/kg (brain CB1 receptor; rat, po, 0.3 mg/kg p.o., brains removed 2 hr after return of food, read-out: % Receptor Occupancy (mean ± S-D)) was 27 ± 12% and the receptor occupancy at 1 mg/kg (brain CB1 receptor; rat, po, 1 mg/kg p.o., brains removed 2 hr after return of food, read-out: % Receptor Occupancy (mean ± S-D)) was 64 ± 2%. The receptor occupancy at 3 mg/kg (brain CB1 receptor; rat, po, 3 mg/kg p.o., brains removed 2 hr after return of food, read-out: % Receptor Occupancy (mean ± S-D)) was 78 ± 6% and the receptor occupancy at 10 mg/kg (brain CB1 receptor; rat, po, 10 mg/kg p.o., brains removed 2 hr after return of food, read-out: % Receptor Occupancy (mean ± S-D)) was 82 ± 2%.
